Measured values as given in BindingDB's records for doi:10.1016/s0006-291x(02)03054-1 (Pharmacia, 2003).

Target: FMRFamide-like neuropeptides 14 (Ascaris)

SMILES: Nc1nc2c(ncn2C2OC(COP(=O)(O)OP(=O)(O)OP(=O)(O)O)C(O)C2O)c(=O)[nH]1 (stereo unspecified) [CAS_6830]
- Ki: 10.5 nM
